Measurements as given in article PMC7465040, “Cytotoxic and Anti-Plasmodial Activities of Stephania dielsiana Y.C. Wu Extracts and the Isolated Compounds” (Molecules, 2020).
Like-named read-outs stand apart in the source and are kept apart here.

Legend:
[1] = system: HeLa, MDA-MB231, MDA-MB-468, MCF7, 184B5 and MCF10A cell lines; test: SRB cell proliferation assay, whole panel of cell lines; type: cell-based, human; settings: Homo sapiens; cancer and non-cancer cell lines; read-out: IC50 values, range over the cell lines examined
Experimental: (§1) In vitro anticancer study: The in vitro anti-proliferative tests were carried out as described previously, using aliquots of the cell lines used therein. Briefly, HeLa, MDA-MB-231 and MDA-MB-468, MCF7, and 184B5 and MCF 10A cell lines were purchased from ATCC. The identity of the cell lines presented in this study were verified by short tandem repeat profiling by Genetica DNA Laboratories (www.celllineauthentication.com) (April 8, 2015). MCF10A was grown in DMEM F12 medium supplemented with 0.02 μg/mL epidermal growth factor, 10% FBS, 10 μg/mL insulin and […] hydrocortisone. MDA-MB-468 were grown in DMEM supplemented with 10% FBS and antibiotics cocktail (100 μg/mL streptomycin, 100 units/mL penicillin and 250 ng/mL amphotericin B). SRB cell proliferation assays were carried out as previously described, with some minor modifications. The concentration range for all tested cell lines were from 100–0.39 μg/mL for extracts and 100–0.39 μM for pure compounds. […] All experiments were carried out at least twice.

[2] = system: 184B5; test: SRB cell proliferation assay, 184B5 non-cancer cells; type: cell-based, human; settings: for IC50: Homo sapiens, 184B5, read-out: IC50 (μM ± SD) 184B5
Experimental: as §1

[3] = system: MCF 10A; test: SRB cell proliferation assay, MCF10A non-cancer cells; type: cell-based; settings: Homo sapiens, read-out: IC50 (μM ± SD) MCF 10A
Experimental: as §1

[4] = biological target: T1, Aurora A (Homo sapiens, UniProt O14965); test: In vitro kinase assay (ADP-Glo), Aurora A; type: biochemical; settings: ± standard deviation, n = 2
T1 construct: purchased Promega
T1 sequence (O14965 1-403): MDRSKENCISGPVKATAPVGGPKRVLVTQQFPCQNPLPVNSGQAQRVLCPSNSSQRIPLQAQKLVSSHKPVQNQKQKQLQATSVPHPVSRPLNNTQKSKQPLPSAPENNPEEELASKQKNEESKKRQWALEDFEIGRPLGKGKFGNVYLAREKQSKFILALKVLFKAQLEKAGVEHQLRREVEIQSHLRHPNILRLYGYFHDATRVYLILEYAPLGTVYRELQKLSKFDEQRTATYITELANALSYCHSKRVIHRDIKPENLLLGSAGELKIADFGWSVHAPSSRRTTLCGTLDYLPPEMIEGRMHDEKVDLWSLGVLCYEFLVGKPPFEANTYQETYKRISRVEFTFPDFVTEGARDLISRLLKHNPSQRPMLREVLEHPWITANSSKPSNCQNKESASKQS
Experimental: In vitro kinase assay: The Aurora A and B kinase assays were carried out using the Promega ADP-Glo based Kinase Activity Profiling system. The protocols for the Aurora A/(Myelin Basic Protein (MBP) and Aurora B/MBP assay kits were according to those recommended by the suppliers. The concentration range used was from 20 μM–39.1 nM in 384-well plates. The luminescent output from the kinase assay was read on a Biotek Synergy H4 plate reader.

[5] = system: chloroquine-resistant W2 P. falciparum strain; test: In vitro anti-plasmodial assay (HRP2 ELISA), W2; type: cell-based, Plasmodium falciparum; settings: for IC50: 72 h, HRP2 ELISA, mean of five experiments, read-out: IC50 (μM ± SD) W2
Experimental: Parasites were grown in A-positive human blood (Etablissement Français du Sang, Marseille, France) under controlled atmospheric conditions that consisted of 10% O2, 5% CO2, and 85% N2 at 37 °C with a humidity of 95%.
In vitro anti-plasmodial assay: The two P. falciparum strains 3D7 and W2 were synchronized twice with sorbitol before use. The clonality of these strains was verified both in our laboratory and in an independent laboratory from the Worldwide Anti-malarial Resistance Network (WWARN) by PCR genotyping of the polymorphic genetic markers msp1 and msp2 and microsatellite loci. The compounds were re-suspended in methanol or DMSO 5% (v/v) and then diluted in methanol to obtain final concentrations ranging from 0.008 to 500 μg/mL (final concentration of 0.5% of methanol or DMSO). […] The plates were incubated for 72 h at 37 °C in controlled atmospheric conditions 5% CO2, 10% O2, and […]. After thawing the plates, haemolysed cultures were homogenized by vortexing the plates. Both the success of the drug susceptibility assay and the appropriate volume of haemolysed culture to use for each assay were determined for each clinical isolate during a preliminary HRP2 ELISA. Both the pre-test and subsequent ELISA assays were performed using a commercial kit (Malaria Ag Celisa, ref KM2159, Cellabs PTY LTD, Brookvale, Australia) according to the manufacturer’s recommendation. The optical density (OD) of each sample was measured with a spectrophotometer (Safire 2, Tecan, Lyon, France). […] The anti-plasmodial in vitro assay was performed five times for each product. The IC50 values represented the mean value calculated from five experiments. According to Hout, a selectivity index (SI) was based on the ratio between anti-parasitic and cytotoxic activities. In the case of our study, a SI was calculated between non-tumorigenic cell line 184B5 and parasites 3D7 or W2 and/or MCF10A and these two parasites.

[6] = system: HeLa cells; test: Cell cycle analysis, propidium iodide flow cytometry; type: cell-based, human; settings: asynchronous HeLa, 10 μM, 12–72 h
Experimental: Cell cycle analysis: Propidium iodide staining and flow cytometry analysis were carried out as described previously with minor modifications. Briefly, 250,000 HeLa cells (50,000 cells/mL) were treated with 10 μM oxostephanine (1) and harvested at the indicated time points. All experiments were carried out at least twice.

[7] = system: HeLa; test: SRB cell proliferation assay, HeLa; type: cell-based, human; settings: for IC50: 72 h, Table 2A, SRB, read-out: IC50 (μM ± SD) HeLa
Experimental: as §1

[8] = system: MDA-MB-231; test: SRB cell proliferation assay, MDA-MB-231; type: cell-based, human
Experimental: as §1

[9] = system: Aurora A, B, and C phosphorylation in HeLa cells arrested in mitosis; test: Western blot, autophosphorylation of Aurora kinases; type: cell-based, human; settings: 20 μM, 12 h
Experimental: Western Blot analysis: Western blotting was carried out as described previously. The primary antibodies used were from Cell Signaling (Histone H3; p-Histone H3^S10 and Phospho-Aurora A (Thr288)/Aurora B (Thr232)/Aurora C (Thr198)) and used at recommended dilution. For cell synchronization at prometaphase, HeLa cells were treated with 50 ng/mL nocodazole (NZ) (Santa Cruz Biotechnology) for 12 h. All experiments were carried out at least twice.

## COc1cccc2c1C(=O)c1nccc3cc4c(c-2c13)OCO4 [Oxostephanine 1, oxostephanine]
[1]
  IC50: 1.66 to 4.35 µM
[2]; Table 2A, SRB, 72 h
  IC50: 1.66 ± 0.56 µM
[2]; Table 3, non-cancer cell line
  IC50: 1.66 ± 0.56 µM
[2]; ratio of IC50
  Increase in effectiveness compared with stephanine (3), 184B5: ~4 fold
[3]; Table 2A, SRB, 72 h
  IC50: 2.49 ± 0.11 µM
[3]; Table 3, non-cancer cell line
  IC50: 2.49 ± 0.11 µM
[4]
  IC50: 0.422 ± 0.13 µM
[5]
  IC50: 216 ± 31.5 µM
[5]; Plasmodium falciparum, W2, 72 h
  IC50: 216 to 226 µM
[5]; Table 3, selectivity index between 184B5 and parasites W2
  SI W2 184B5: 0.007
[6]
  Cell cycle distribution: induces a transient G2/M arrest and apoptotic cell death
[7]; Homo sapiens, HeLa
  IC50: 1.73 µM
[7]
  IC50: 1.76 ± 0.2 µM
[7]; Table 2B, non-cancer 184B5 vs cancer HeLa
  Selectivity index (SI) 184B5 versus HeLa: 0.94
[7]; Table 2B, non-cancer MCF10A vs cancer HeLa
  Selectivity index (SI) MCF10A versus HeLa: 1.40
[7]; ratio of IC50
  Increase in effectiveness compared with stephanine (3), HeLa: 2 fold
[8]; Homo sapiens, MDA-MB-231, Table 2A, SRB, 72 h, read-out: IC50 (μM ± SD) MDA-MB-231
  IC50: 2.67 ± 0.29 µM
[8]; Table 2B, non-cancer 184B5 vs cancer MDA-MB-231
  Selectivity index (SI) 184B5 versus MDA-MB-231: 0.62
[8]; Table 2B, non-cancer MCF10A vs cancer MDA-MB-231
  Selectivity index (SI) MCF10A versus MDA-MB-231: 0.93
[9]
  Autophosphorylation of Aurora kinases A, B and C: inhibits the auto-phosphorylation of all three Aurora kinases
